US4895727A, “Pharmaceutical vehicles for exhancing penetration and retention in the skin” (priority 1985, dated 1990)

tested on: not given; conditions: background; cited from earlier work

Compound | systemic toxicity
CN(Cc1cnc2nc(N)nc(N)c2n1)c1ccc(C(=O)N[C@@H](CCC(=O)O)C(=O)O)cc1 [methotrexate] | systemically toxic

tested on: human breast adenocarcinoma, MX-1; conditions: in vivo

Compound | Premature Death | Tumor Free 60 Days | Tumor Recurrence | Tumor at Death
COc1cc(C2c3cc4c(cc3C(OC3OC5COC(C)OC5C(O)C3O)C3COC(=O)C23)OCO4)cc(OC)c1O (stereo not drawn) [VP-16 (no Zn), epipodophyllotoxin beta-D ethylidene glucopyranoside] | 2 | 2 | 0 | 3
norisoguaiacin [norisoguaiacin (no Zn)] | 1 | – | – | 1
CC/C(=C(/CC)c1ccc(O)cc1)c1ccc(O)cc1 [diethylstilbestrol (no Zn), diethylstilbestrol] | 2 | – | – | –
O=C(O)CCCCCCCC(=O)O [azelaic acid (no Zn), azelaic acid] | 0 | – | – | –
COc1cc(C2c3cc4c(cc3C(O)C3COC(=O)C23)OCO4)cc(OC)c1O (centres unmarked) [4'-demethylepipodophyllotoxin (no Zn), 4'-demethylepipodophyllotoxin] | 0 | 1 | 3 | 4
COc1cccc2c1C(=O)c1c(O)c3c(c(O)c1C2=O)C[C@@](O)(C(C)=O)C[C@@H]3O[C@H]1C[C@H](N)[C@H](O)[C@H](C)O1 [daunomycin (no Zn), daunomycin] | 2 | – | – | –
COc1cc(C2c3cc4c(cc3C(OC3OC5COC(c6cccs6)OC5C(O)C3O)C3COC(=O)C23)OCO4)cc(OC)c1O (stereo not drawn) [VM-26 (no Zn), epipodophyllotoxin beta-D thenylidene glucopyranoside] | 0 | 0 | 0 | 5
CC(C)(C)c1cccc(O)c1 [3-tertbutylphenol (no Zn), 3-tertbutylphenol] | 3 | – | – | –
CC(=O)Oc1ccc(C=CC=Cc2ccccc2)cc1OC(C)=O [1-(3,4-diacetoxyphenyl)-4-phenyl-buta-1,3-diene] | 0 | – | – | –
N.N.[Cl][Pt][Cl] [platinum cis-diamine-dichloride (no Zn), platinum cis-diamine-dichloride] | 0 | – | – | 4
O=C1c2c(O)cccc2Cc2cccc(O)c21 [dithranol (no Zn), dithranol] | 0 | – | – | –
Oc1ncnc2[nH]ncc12 [allopurinol (no Zn), allopurinol] | 0 | – | – | –
O=P1(N(CCCl)CCCl)NCCCO1 (centres unmarked) [cyclophosphamide (no Zn), cyclophosphamide] | 0 | – | – | 5
O=C(O)C=Cc1ccc(O)cc1 [p-hydroxycinnamic acid (no Zn), p-hydroxycinnamic acid] | 0 | – | – | –
CO[C@@]12[C@H](COC(N)=O)C3=C(C(=O)C(C)=C(N)C3=O)N1C[C@@H]1N[C@@H]12 [mitomycin (no Zn), mitomycin] | 4 | – | – | –
CC(Cc1ccc(O)c(O)c1)C(C)Cc1ccc(O)c(O)c1 (racemic) [dl-NDGA (no Zn), nordihydroguaiaretic acid] | 0 | – | – | 1
COc1cccc2c1C(=O)c1c(O)c3c(c(O)c1C2=O)C[C@@](O)(C(=O)CO)C[C@@H]3O[C@H]1C[C@H](N)[C@H](O)[C@H](C)O1 [adriamycin (no Zn), adriamycin] | 1 | – | – | –
Oc1ccc(CCc2ccc(CCc3ccc(O)c(O)c3)cc2)cc1O [1,4-bis(3,4-dihydroxyphenethyl)-benzene] | 0 | – | – | –

same assay, conditions: number of animals of five; single intratumor injection 0.01 ml; standard dosage level

Compound | Tumor Free 60 Days | Tumor Recurrence
norisoguaiacin [norisoguaiacin (no Zn)] | 2 | 0
N.N.[Cl][Pt][Cl] [platinum cis-diamine-dichloride (no Zn), platinum cis-diamine-dichloride] | 1 | 0
O=P1(N(CCCl)CCCl)NCCCO1 (centres unmarked) [cyclophosphamide (no Zn), cyclophosphamide] | 0 | 0
CC(Cc1ccc(O)c(O)c1)C(C)Cc1ccc(O)c(O)c1 (racemic) [dl-NDGA (no Zn), nordihydroguaiaretic acid] | 4 | 0

tested on: not given; conditions: 0.257 moles per 100 grams; general statement; cited from earlier work

Compound | concentration causing tissue destruction when topically applied [%]
[Cl-].[Cl-].[Zn+2] [zinc chloride] | ≥ 35
